Data published in patent US8883766B2, “Ion channel modulators and methods of use” (Vertex Pharmaceuticals Incorporated, priority 2007, dated 2014).

The compounds below were run against T1, NaV1.3 (Homo sapiens, UniProt Q9NY46) (assay: VIPR optical membrane potential assay with electrical stimulation, HEK293 cells stably expressing NaV1.3). Conditions: compound activity for the NaV1.3 receptors.
T1 construct: expressed in transfected cells
Assay type: cell-based
Procedure: Compounds of the invention are useful as antagonists of voltage-gated sodium ion channels. Antagonist properties of test compounds were assessed as follows. Cells expressing the NaV of interest were placed into microtiter plates. After an incubation period, the cells were stained with fluorescent dyes sensitive to the transmembrane potential. The test compounds were added to the microtiter plate. The cells were stimulated with either chemical or electrical means to evoke a NaV dependent membrane potential change from unblocked channels, which was detected and measured with trans-membrane potential-sensitive dyes. Antagonists were detected as a decreased membrane potential response to the stimulus. The optical membrane potential assay utilized voltage-sensitive FRET sensors described by Gonzalez and Tsien (See, Gonzalez, J. E. and R. Y. Tsien (1995) “Voltage sensing by fluorescence resonance energy transfer in single cells” Biophys J 69(4): 1272-80, and Gonzalez, J. E. and R. Y. Tsien (1997) “Improved indicators of cell membrane potential that use fluorescence resonance energy transfer” Chem Biol 4(4): 269-77) in combination with instrumentation for measuring fluorescence changes such as the Voltage/Ion Probe Reader (VIPR®) (See, Gonzalez, J. E., K. Oades, et al. (1999) “Cell-based assays and instrumentation for screening ion-channel targets” Drug Discov Today 4(9): 431-439).
The following is an example of how NaV1.3 inhibition activity is measured using the optical membrane potential method #2. Other subtypes are performed in an analogous mode in a cell line expressing the NaV of interest.
HEK293 cells stably expressing NaV1.3 are plated into 96-well microtiter plates. After an appropriate incubation period, the cells are stained with the voltage sensitive dyes CC2-DMPE/DiSBAC2(3) as follows.
2×CC2-DMPE=20 μM CC2-DMPE: 10 mM CC2-DMPE is vortexed with an equivalent volume of 10% pluronic, followed by vortexing in required amount of HBSS containing 10 mM HEPES. Each cell plate will require 5 mL of 2×CC2-DMPE. 50 μL of 2×CC2-DMPE is added to wells containing washed cells, resulting in a 10 μM final staining concentration. The cells are stained for 30 minutes in the dark at RT.
2×DISBAC2(3) with ABSC1=6 μM DISBAC2(3) and 1 mM ABSC1: The required amount of 10 mM DISBAC2(3) is added to a 50 ml conical tube and mixed with 1 μL 10% pluronic for each mL of solution to be made and vortexed together. Then HBSS/HEPES is added to make up 2× solution. Finally, the ABSC1 is added.
The 2×DiSBAC2(3) solution can be used to solvate compound plates. Note that compound plates are made at 2× drug concentration. Wash stained plate again, leaving residual volume of 50 μL. Add 50 μL/well of the 2×DiSBAC2(3) w/ ABSC1. Stain for 30 minutes in the dark at RT.
The electrical stimulation instrument and methods of use are described in ION Channel Assay Methods PCT/US01/21652, herein incorporated by reference. The instrument comprises a microtiter plate handler, an optical system for exciting the coumarin dye while simultaneously recording the coumarin and oxonol emissions, a waveform generator, a current- or voltage-controlled amplifier, and a device for inserting electrodes in well. Under integrated computer control, this instrument passes user-programmed electrical stimulus protocols to cells within the wells of the microtiter plate.
Use the current-controlled amplifier to deliver stimulation wave pulses for 3 s. Two seconds of pre-stimulus recording are performed to obtain the un-stimulated intensities. Five seconds of post-stimulation recording are performed to examine the relaxation to the resting state.
Data are analyzed and reported as normalized ratios of background-subtracted emission intensities measured in the 460 nm and 580 nm channels. Background intensities are then subtracted from each assay channel. […]

T1 sequence (Q9NY46 whole entry): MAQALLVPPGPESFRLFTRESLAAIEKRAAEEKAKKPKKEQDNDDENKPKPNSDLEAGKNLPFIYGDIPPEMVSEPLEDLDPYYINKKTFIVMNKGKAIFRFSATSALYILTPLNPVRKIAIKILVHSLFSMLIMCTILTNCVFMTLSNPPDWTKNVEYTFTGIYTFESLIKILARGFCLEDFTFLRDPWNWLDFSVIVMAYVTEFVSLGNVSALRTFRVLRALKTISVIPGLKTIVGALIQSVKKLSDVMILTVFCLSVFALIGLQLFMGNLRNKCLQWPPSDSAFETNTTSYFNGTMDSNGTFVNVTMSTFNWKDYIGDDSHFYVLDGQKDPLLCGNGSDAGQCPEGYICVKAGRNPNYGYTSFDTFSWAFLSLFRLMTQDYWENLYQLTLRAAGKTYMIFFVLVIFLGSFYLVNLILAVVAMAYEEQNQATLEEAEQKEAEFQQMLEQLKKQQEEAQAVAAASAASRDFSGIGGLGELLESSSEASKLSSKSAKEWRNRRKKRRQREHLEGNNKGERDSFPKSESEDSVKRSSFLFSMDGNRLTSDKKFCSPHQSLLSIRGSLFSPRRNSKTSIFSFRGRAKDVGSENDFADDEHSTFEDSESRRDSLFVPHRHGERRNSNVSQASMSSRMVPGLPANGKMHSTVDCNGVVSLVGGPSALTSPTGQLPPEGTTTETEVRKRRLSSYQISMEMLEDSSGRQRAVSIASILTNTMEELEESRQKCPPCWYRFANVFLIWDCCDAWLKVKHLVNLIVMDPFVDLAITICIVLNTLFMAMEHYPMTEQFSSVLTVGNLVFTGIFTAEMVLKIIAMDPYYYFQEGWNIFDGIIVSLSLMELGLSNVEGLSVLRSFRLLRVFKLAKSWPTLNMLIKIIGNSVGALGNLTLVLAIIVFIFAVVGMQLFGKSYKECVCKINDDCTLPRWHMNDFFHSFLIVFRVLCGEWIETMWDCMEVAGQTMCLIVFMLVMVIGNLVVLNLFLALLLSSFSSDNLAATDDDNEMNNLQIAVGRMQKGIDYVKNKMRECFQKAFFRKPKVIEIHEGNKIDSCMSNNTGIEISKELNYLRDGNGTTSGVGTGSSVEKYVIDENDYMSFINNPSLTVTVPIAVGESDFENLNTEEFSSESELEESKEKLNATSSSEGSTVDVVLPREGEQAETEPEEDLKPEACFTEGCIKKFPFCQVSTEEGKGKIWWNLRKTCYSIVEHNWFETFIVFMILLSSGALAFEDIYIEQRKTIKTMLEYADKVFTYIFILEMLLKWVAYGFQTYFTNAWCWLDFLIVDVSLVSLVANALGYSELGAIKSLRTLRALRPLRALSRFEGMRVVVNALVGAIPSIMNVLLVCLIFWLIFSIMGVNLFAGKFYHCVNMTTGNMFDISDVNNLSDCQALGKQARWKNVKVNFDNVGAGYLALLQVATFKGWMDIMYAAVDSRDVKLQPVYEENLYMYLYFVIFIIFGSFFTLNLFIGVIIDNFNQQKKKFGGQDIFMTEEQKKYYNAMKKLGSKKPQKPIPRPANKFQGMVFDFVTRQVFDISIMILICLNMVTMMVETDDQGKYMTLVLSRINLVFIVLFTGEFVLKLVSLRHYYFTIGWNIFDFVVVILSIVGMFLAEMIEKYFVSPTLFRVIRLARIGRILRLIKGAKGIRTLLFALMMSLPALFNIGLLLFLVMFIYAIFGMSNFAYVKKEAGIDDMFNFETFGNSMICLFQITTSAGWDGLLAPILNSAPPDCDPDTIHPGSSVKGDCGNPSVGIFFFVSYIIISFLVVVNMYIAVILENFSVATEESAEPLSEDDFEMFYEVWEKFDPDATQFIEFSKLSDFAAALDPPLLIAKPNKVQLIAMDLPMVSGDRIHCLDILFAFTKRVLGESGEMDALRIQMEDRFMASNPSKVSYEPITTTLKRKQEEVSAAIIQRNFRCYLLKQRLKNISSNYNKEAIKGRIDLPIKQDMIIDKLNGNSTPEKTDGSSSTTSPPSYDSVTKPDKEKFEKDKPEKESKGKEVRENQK

SMILES | IC50 [µM]
CC(=O)NS(=O)(=O)c1ccc(NC(=O)[C@@H](C)n2ccc3c(F)cccc32)cc1 [Compound 82] | > 5
COC(=O)NS(=O)(=O)c1ccc(NC(=O)Cn2ccc3cc(Cl)ccc32)cc1 [Compound 26] | > 5
CCC(=O)NS(=O)(=O)c1ccc(NC(=O)COc2ccnc3c(C(F)(F)F)cccc23)cc1 [Compound 71] | > 5
COC(=O)NS(=O)(=O)c1ccc(NC(=O)[C@@H](C)n2ccc3ccc(C(F)(F)F)cc32)cc1 [Compound 87, (R)-methyl 4-(2-(6-(trifluoromethyl)-1H-indol-1-yl)propanamido)phenylsulfonylcarbamate] | < 2
COC(=O)NS(=O)(=O)c1ccc(NC(=O)[C@H](C)n2ccc3ccc(Cl)cc32)cc1 [Compound 80] | > 5
CNC(=O)NS(=O)(=O)c1ccc(NC(=O)[C@@H](C)n2ccc3c(F)cccc32)cc1 [Compound 31, (R)-2-(4-fluoro-1H indol-1-yl)-N-(4-(N-(methylcarbamoyl)sulfamoyl)phenyl)propanamide] | > 5
COC(=O)NS(=O)(=O)c1ccc(NC(=O)C(C)n2ccc3cc(Cl)ccc32)cc1 (stereo not drawn) [Compound 20] | 2 to 5
COC(=O)NS(=O)(=O)c1ccc(NC(=O)NC2Cc3ccccc3C2)cc1 [Compound 2] | > 5
COC(=O)NS(=O)(=O)c1ccc(NC(=O)Cn2ccc3cccc(Cl)c32)cc1 [Compound 28] | > 5
COC(=O)NS(=O)(=O)c1ccc(NC(=O)c2cc3c(F)cc(Cl)cc3[nH]2)cc1 [Compound 81] | > 5
COC(=O)NS(=O)(=O)c1ccc(NC(=O)c2cc3c(F)cc(F)cc3[nH]2)cc1 [Compound 18] | > 5
NC(=O)NS(=O)(=O)c1ccc(NC(=O)CCn2ccc3cc(Cl)ccc32)cc1 [Compound 4] | > 5
C[C@H](C(=O)Nc1ccc(S(=O)(=O)NC(=O)CC(C)(C)C)cc1)n1ccc2c(F)cccc21 [Compound 13] | > 5
COC(=O)NS(=O)(=O)c1ccc(NC(=O)[C@@H](C)N2CCCc3ccccc32)cc1 [Compound 47] | > 5
C[C@H](C(=O)Nc1ccc(S(=O)(=O)NC(=O)C2CC2)cc1)n1ccc2c(F)cccc21 [Compound 21] | > 5
COC(=O)NS(=O)(=O)c1ccc(NC(=O)[C@H](C)Oc2cccc(Cl)c2Cl)cc1 [Compound 65] | > 5
C[C@H](C(=O)Nc1ccc(S(=O)(=O)NC(=O)C2CCC2)cc1)n1ccc2c(F)cccc21 [Compound 42] | > 5
COc1ccccc1C(=O)NS(=O)(=O)c1ccc(NC(=O)COc2ccnc3c(C(F)(F)F)cccc23)cc1 [Compound 49] | > 5
COC(=O)NS(=O)(=O)c1ccc(NC(=O)c2cc3c(F)cccc3[nH]2)cc1 [Compound 15] | > 5
COC(=O)NS(=O)(=O)c1ccc(NC(=O)[C@@H](C)n2ccc3cccc(F)c32)cc1 [Compound 36] | > 5
CCOC(=O)NS(=O)(=O)c1ccc(N2CCN(C(=O)[C@@H](C)N3CCCc4cc(Cl)ccc43)CC2)cc1 [Compound 52] | > 5

Second part, the compound after the results:

IC50 [µM] | SMILES
> 5 | COC(=O)NS(=O)(=O)c1ccc(NC(=O)Cn2cc(C)c3ccccc32)cc1 [Compound 12]
> 5 | COC(=O)NS(=O)(=O)c1ccc(NC(=O)[C@H](CC(C)C)N2CCCc3cc(Cl)ccc32)cc1 [Compound 5]
> 5 | COC(=O)NS(=O)(=O)c1ccc(NC(=O)Cn2ccc3c(C#N)cccc32)cc1 [Compound 44]
> 5 | CCOC(=O)NS(=O)(=O)c1ccc(N2CCN(C(=O)[C@@H](C)N3CCCc4cc(F)ccc43)CC2)cc1 [Compound 41, (R)-ethyl 4-(4-(2-(6-fluoro-3,4-dihydroquinolin-1(2H)-yl)propanoyl)piperazin-1-yl)phenylsulfonylcarbamate]
< 2 | COC(=O)NS(=O)(=O)c1ccc(NC(=O)[C@@H](C)N2CCCc3cc(Cl)ccc32)cc1 [Compound 6, (R)-methyl 4-(2-(6-chloro-3,4-dihydroquinolin-1(2H)-yl)propanamido)phenylsulfonylcarbamate]
> 5 | COC(=O)NS(=O)(=O)c1ccc(NC(=O)Cn2ccc3ccc(C(F)(F)F)cc32)cc1 [Compound 39]
> 5 | COC(=O)NS(=O)(=O)c1ccc(NC(=O)C(C)(C)n2ccc3c(F)cccc32)cc1 [Compound 85]
> 5 | CC(=O)NS(=O)(=O)c1ccc(N)cc1 [Compound 45]
> 5 | C[C@H](C(=O)Nc1ccc(S(=O)(=O)NC(=O)C2CCCC2)cc1)n1ccc2c(F)cccc21 [Compound 11, (R)—N-(4-(2-(4-fluoro-1H indol-1-yl)propanamido)phenylsulfonyl)cyclopentanecarboxamide]
> 5 | COC(=O)NS(=O)(=O)c1ccc(NC(=O)c2ccc(OC)cc2)cc1 [Compound 88]
2 to 5 | COC(=O)NS(=O)(=O)c1ccc(NC(=O)[C@@H](C(C)C)N2CCCc3cc(Cl)ccc32)cc1 [Compound 10]
> 5 | CCC(=O)NS(=O)(=O)c1ccc(NC(=O)C(C)n2ccc3ccccc32)cc1 (stereo not drawn) [Compound 46]
< 2 | COC(=O)NS(=O)(=O)c1ccc(NC(=O)[C@@H](CC(C)C)n2ccc3c(F)cccc32)cc1 [Compound 23, (R)-methyl 4-(2-(4-fluoro-1H-indol-1-yl)-4-methylpentanamido) phenylsulfonylcarbamate]
< 2 | COC(=O)NS(=O)(=O)c1ccc(NC(=O)[C@@H](C)N2CCCc3cc(Cl)c(C)cc32)cc1 [Compound 22]
> 5 | COC(=O)NS(=O)(=O)c1ccc(NC(=O)COc2ccc(Cl)c(Cl)c2)cc1 [Compound 64]
> 5 | COC(=O)NS(=O)(=O)c1ccc(NC(=O)COc2ccnc3c(C(F)(F)F)cccc23)cc1 [Compound 60]
> 5 | COC(=O)NS(=O)(=O)c1ccc(NC(=O)Cn2ccc3cccc(F)c32)cc1 [Compound 69]
> 5 | COC(=O)NS(=O)(=O)c1ccc(NC(=O)Cn2ccc3ccc(OC)cc32)cc1 [Compound 7]
> 5 | COC(=O)NS(=O)(=O)c1ccc(NC(=O)Cn2ccc3cc(C)ccc32)cc1 [Compound 14]
> 5 | COC(=O)NS(=O)(=O)c1ccc(NC(=O)Cn2ccc3ccc(Cl)cc32)cc1 [Compound 70]
> 5 | CCC#CCOC(=O)NS(=O)(=O)c1ccc(NC(=O)[C@@H](C)n2ccc3c(F)cccc32)cc1 [Compound 76]
> 5 | C[C@H](C(=O)Nc1ccc(S(=O)(=O)NC(=O)NC(C)(C)C)cc1)n1ccc2c(F)cccc21 [Compound 54]
2 to 5 | C[C@H](C(=O)Nc1ccc(S(=O)(=O)NC(N)=O)cc1)n1ccc2c(F)cccc21 [Compound 63]
> 5 | COC(=O)NS(=O)(=O)c1ccc(NC(=O)[C@@H](C)N2CCCc3cc(F)ccc32)cc1 [Compound 55]
> 5 | COC(=O)NS(=O)(=O)c1ccc(NC(=O)[C@H](C(C)C)N2CCCc3cc(Cl)ccc32)cc1 [Compound 24]
2 to 5 | COC(=O)NS(=O)(=O)c1ccc(NC(=O)[C@@H](C)n2ccc3ccccc32)cc1 [Compound 40]
> 5 | COC(=O)NS(=O)(=O)c1ccc(NC(=O)[C@H](CC(C)C)n2ccc3c(F)cccc32)cc1 [Compound 77]
> 5 | CCOC(=O)NS(=O)(=O)c1ccc(NC(=O)[C@@H](C)n2ccc3c(F)cccc32)cc1 [Compound 43, (R)-Ethyl 4-(2-(4-fluoro-1H-indol-1-yl)propanamido)phenylsulfonyl-carbamate]
> 5 | COC(=O)NS(=O)(=O)c1ccc(NC(=O)Cn2ccc3cc(F)c(F)cc32)cc1 [Compound 8]
< 2 | COC(=O)NS(=O)(=O)c1ccc(NC(=O)[C@@H](C)n2ccc3c(F)cccc32)cc1 [Compound 34]
